Measured values reported in US11377442B2, “Small molecule agonists and antagonists of NR2F6 activity” (ZANDER THERAPEUTICS, INC., priority 2016, dated 2022).

Molecular target: T1, NR2F6 (Homo sapiens, UniProt P10588)
T1 construct: expressed in transfected cells; also transient transfection
T1 sequence (P10588 1-404): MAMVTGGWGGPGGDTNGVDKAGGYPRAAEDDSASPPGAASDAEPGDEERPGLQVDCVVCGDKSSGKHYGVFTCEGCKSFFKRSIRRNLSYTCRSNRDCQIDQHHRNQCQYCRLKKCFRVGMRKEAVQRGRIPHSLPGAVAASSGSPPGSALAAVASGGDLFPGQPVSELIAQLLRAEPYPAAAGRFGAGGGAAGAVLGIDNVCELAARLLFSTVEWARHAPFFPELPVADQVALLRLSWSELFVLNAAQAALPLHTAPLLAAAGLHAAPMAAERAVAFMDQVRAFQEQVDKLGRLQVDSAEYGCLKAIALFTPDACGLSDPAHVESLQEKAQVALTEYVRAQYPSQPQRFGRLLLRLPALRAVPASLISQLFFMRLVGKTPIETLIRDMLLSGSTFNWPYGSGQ
Assay: NR2F6 agonist screening, Firefly signal cmpd/DMSO
Type: cell-based
Conditions: for Firefly/Renilla (NR2F6 stable, clone F4): ratio Firefly/Renilla; for Firefly, NR2F6 stable (clone F4)/pGL4: ratio of Firefly in NR2F6 stable clone F4 to pGL4

[1] = C11 analogs follow set (Tables 2-10)

Row | SMILES | Firefly, cmpd/DMSO repeat 1 [1] | Firefly, cmpd/DMSO repeat 2 [1] | further results
1 | Cc1cc(C)cc(S(=O)(=O)c2cc3cc(Br)ccc3oc2=O)c1 [Compound C187] | 0.8 | 0.7 | 
2 | Cc1ccc(S(=O)(=O)c2cc3cc(Cl)ccc3oc2=O)cc1Cl [Compound C188] | 9.4 | 8.7 | Firefly/Renilla (NR2F6 stable, clone F4) (Table 13): 1.2; Firefly, NR2F6 stable (clone F4)/pGL4 (Table 13): 5.0; Firefly, cmpd/DMSO repeat 1 (Table 13): 9.4; Firefly, cmpd/DMSO repeat 2 (Table 13): 8.7
3 | Cc1ccc(S(=O)(=O)c2cc3cc(Br)ccc3oc2=O)cc1Cl [Compound C189] | 2.8 | 2.2 | 
4 | O=c1oc2ccc(Cl)cc2cc1S(=O)(=O)c1cccc(Cl)c1 [Compound C191] | 8.6 | 12.8 | 
5 | O=c1oc2ccc(Br)cc2cc1S(=O)(=O)c1cccc(Cl)c1 [Compound C192] | 1.8 | 2.4 | 
6 | O=c1oc2ccc(Cl)cc2cc1S(=O)(=O)c1cc(F)cc(F)c1 [Compound C194] | 10.6 | 6.3 | Firefly/Renilla (NR2F6 stable, clone F4) (Table 13): 1.3; Firefly, NR2F6 stable (clone F4)/pGL4 (Table 13): 6.6; Firefly, cmpd/DMSO repeat 1 (Table 13): 10.6; Firefly, cmpd/DMSO repeat 2 (Table 13): 6.3
7 | N#Cc1cccc(S(=O)(=O)c2cc3cc(Br)ccc3oc2=O)c1 [Compound C196] | 3.8 | 3.4 | 
8 | Cc1ccc(S(=O)(=O)c2cc3cc(Br)ccc3oc2=O)cc1 [Compound C197] | 17.6 | 14.8 | Firefly/Renilla (NR2F6 stable, clone F4) (Table 13): 1.1; Firefly, NR2F6 stable (clone F4)/pGL4 (Table 13): 6.3; Firefly, cmpd/DMSO repeat 1 (Table 13): 17.6; Firefly, cmpd/DMSO repeat 2 (Table 13): 14.8
9 | O=c1oc2ccc(Br)cc2cc1S(=O)(=O)c1ccc(F)cc1 [Compound C198] | 1.0 | 0.8 | 
10 | CC(C)(C)c1ccc(S(=O)(=O)c2cc3cc(Br)ccc3oc2=O)cc1 [Compound C200] | 11.0 | 8.1 | Firefly/Renilla (NR2F6 stable, clone F4) (Table 13): 1.2; Firefly, NR2F6 stable (clone F4)/pGL4 (Table 13): 5.4; Firefly, cmpd/DMSO repeat 1 (Table 13): 11.0; Firefly, cmpd/DMSO repeat 2 (Table 13): 8.1
11 | COc1ccc2oc(=O)c(S(=O)(=O)c3ccccc3)cc2c1 [Compound C206] | 2.1 | 1.8 | 
12 | COc1ccc2oc(=O)c(S(=O)(=O)c3ccc(Br)cc3)cc2c1 [Compound C208] | 0.8 | 0.9 | 
13 | COc1ccc2oc(=O)c(S(=O)(=O)c3ccc(C(C)(C)C)cc3)cc2c1 [Compound C209] | 3.1 | 4.2 | Firefly/Renilla (NR2F6 stable, clone F4) (Table 13): 3.6; Firefly, NR2F6 stable (clone F4)/pGL4 (Table 13): 3.1; Firefly, cmpd/DMSO repeat 1 (Table 13): 3.1; Firefly, cmpd/DMSO repeat 2 (Table 13): 4.2
14 | Cc1ccc(S(=O)(=O)c2cc3cc([N+](=O)[O-])ccc3oc2=O)cc1 [Compound C211] | 5.8 | 17.7 | 
15 | O=c1oc2ccc(F)cc2cc1S(=O)(=O)c1ccc(F)cc1 [Compound C213] | 14.0 | 13.6 | Firefly/Renilla (NR2F6 stable, clone F4) (Table 13): 1.6; Firefly, NR2F6 stable (clone F4)/pGL4 (Table 13): 9.6; Firefly, cmpd/DMSO repeat 1 (Table 13): 14.0; Firefly, cmpd/DMSO repeat 2 (Table 13): 13.6
16 | O=c1oc2ccc(F)cc2cc1S(=O)(=O)c1ccc(Br)cc1 [Compound C215] | 11.6 | 13.8 | 

More lines, main results first:

Row | Firefly, cmpd/DMSO repeat 1 [1] | Firefly, cmpd/DMSO repeat 2 [1] | SMILES | further results
17 | 1.0 | 6.9 | Cc1cc(C)cc(S(=O)(=O)c2cc3cc(Cl)ccc3oc2=O)c1 [Compound C186] | 
18 | 2.1 | 2.5 | Cc1cc(C)cc(S(=O)(=O)c2cc3cc(F)ccc3oc2=O)c1 [Compound C190] | 
19 | 1.8 | 1.9 | O=c1oc2ccc(Br)cc2cc1S(=O)(=O)c1cc(F)cc(F)c1 [Compound C193] | 
20 | 38.7 | 29.4 | N#Cc1cccc(S(=O)(=O)c2cc3cc(Cl)ccc3oc2=O)c1 [Compound C195] | Firefly/Renilla (NR2F6 stable, clone F4) (Table 12): 2.1; Firefly, NR2F6 stable (clone F4)/pGL4 (Table 12): 7.7; Firefly, cmpd/DMSO repeat 1 (Table 12): 38.7; Firefly, cmpd/DMSO repeat 2 (Table 12): 29.4
21 | 19.3 | 16.1 | COc1ccc(S(=O)(=O)c2cc3cc(Br)ccc3oc2=O)cc1 [Compound C199] | 
22 | 6.1 | 5.3 | O=c1oc2ccc(Cl)cc2cc1S(=O)(=O)c1ccccc1 [Compound C201] | 
23 | 15.7 | 14.1 | Cc1ccc(S(=O)(=O)c2cc3cc(Cl)ccc3oc2=O)cc1 [Compound C202] | Firefly/Renilla (NR2F6 stable, clone F4) (Table 12): 1.7; Firefly, NR2F6 stable (clone F4)/pGL4 (Table 12): 6.1; Firefly, cmpd/DMSO repeat 1 (Table 12): 15.7; Firefly, cmpd/DMSO repeat 2 (Table 12): 14.1
24 | 9.5 | 15.5 | COc1ccc(S(=O)(=O)c2cc3cc(Cl)ccc3oc2=O)cc1 [Compound C203] | 
25 | 5.0 | 5.8 | O=c1oc2ccc(Cl)cc2cc1S(=O)(=O)c1ccc(Br)cc1 [Compound C204] | 
26 | 6.9 | 6.0 | CC(C)(C)c1ccc(S(=O)(=O)c2cc3cc(Cl)ccc3oc2=O)cc1 [Compound C205] | 
27 | 2.5 | 2.8 | COc1ccc(S(=O)(=O)c2cc3cc(OC)ccc3oc2=O)cc1 [Compound C207] | 
28 | 22.8 | 14.3 | O=c1oc2ccc([N+](=O)[O-])cc2cc1S(=O)(=O)c1ccccc1 [Compound C210] | Firefly/Renilla (NR2F6 stable, clone F4) (Table 13): 1.5; Firefly, NR2F6 stable (clone F4)/pGL4 (Table 13): 8.2; Firefly, cmpd/DMSO repeat 1 (Table 13): 22.8; Firefly, cmpd/DMSO repeat 2 (Table 13): 14.3
29 | 1.7 | 1.9 | O=c1oc2ccc(F)cc2cc1S(=O)(=O)c1ccccc1 [Compound C212] | 
30 | 1.9 | 1.9 | COc1ccc(S(=O)(=O)c2cc3cc(F)ccc3oc2=O)cc1 [Compound C214] | 
31 | 1.3 | 1.0 | CC(C)(C)c1ccc(S(=O)(=O)c2cc3cc(F)ccc3oc2=O)cc1 [Compound C216] | 
32 | 1.8 | 1.4 | Cc1cc(S(=O)(=O)c2cc3cc(F)ccc3oc2=O)ccc1F [Compound C217] | 
33 | 18.2 | 19.1 | O=c1oc2ccc(F)cc2cc1S(=O)(=O)c1ccc(Cl)cc1 [Compound C218] | Firefly/Renilla (NR2F6 stable, clone F4) (Table 12): 1.7; Firefly, NR2F6 stable (clone F4)/pGL4 (Table 12): 9.5; Firefly, cmpd/DMSO repeat 1 (Table 12): 18.2; Firefly, cmpd/DMSO repeat 2 (Table 12): 19.1
34 | 1.3 | 2.5 | O=c1oc2ccc(Br)cc2cc1S(=O)(=O)c1ccccc1F [Compound C219] | 
35 | 10.4 | 6.5 | O=c1oc2ccc(Cl)cc2cc1S(=O)(=O)c1ccccc1F [Compound C220] | Firefly/Renilla (NR2F6 stable, clone F4) (Table 13): 1.1; Firefly, NR2F6 stable (clone F4)/pGL4 (Table 13): 6.2; Firefly, cmpd/DMSO repeat 1 (Table 13): 10.4; Firefly, cmpd/DMSO repeat 2 (Table 13): 6.5
